“Also recorded” adds a separate entry of the source.
Assays:
[1] = target: T1, K-Ras G12D (Homo sapiens, UniProt P01116, G12D); experiment: Western blot of K-Ras G12D protein levels in Panc 08.13 cancer cells after peptide treatment; format: cell-based; details: Panc 08.13 cells (homozygous K-Ras G12D), 30 minutes treatment, 0.3 mM
Excerpt: Example 5. Degradation of K-Ras G12D using Cyclic Peptides. […] Proteolysis-targeting chimeras (PROTACs) using Hif and other proteins are described in Toure and Crews, 2016, Angew. Chem. Int. Ed, 55:2-10, the entire contents of which are incorporated herein by reference. The 7b-Hif PROTAC was further conjugated with the HIV-TAT cell-penetrating peptide […] (SEQ ID NO: 24).
Cell culture. Panc 08.13 cell lines were purchased from American Type Culture collection and cultured as specified by the provider.
Immunoblotting. Western blots were performed according to standard protocols. Briefly, cells were lysed with cell lysis buffer (Cell Signaling Technology) containing protease and phosphatase inhibitors (Cell Signaling Technology). Cell lysates were quantified with a Bradford protein assay (Thermo Scientific) and prepared for gel electrophoresis in Laemmli sample buffer and reducing agent. 20 μg of cell lysate were added to precast polyacrylamide gels (Bio-Rad) and proteins were separated by electrophoresis followed by transfer to PVDF membrane. Membranes were then blocked and probed with an anti-Ras or anti-Tubulin primary antibody followed by horseradish peroxidase-conjugated secondary antibody (Cell Signaling Technology). The bands were visualized by chemiluminescence (Thermo Scientific).

[2] = target: T1, K-Ras G12D; experiment: ELISA binding assay of biotinylated cyclic peptides to K-Ras G12D
Experimental: For ELISA assays, 1 μM of the biotinylated hit peptides were first immobilized onto Neutravidin ELISA plates (Pierce) for 2 hours at room temperature in binding buffer (TBST with 0.1% BSA). […] After washing three times with TBST the plate was then treated with a 1:1000 dilution of the anti-RAS rabbit mAb (Cell Signaling Technology) in binding buffer for thirty minutes, washed three times with TBST, incubated with anti-Rabbit-HRP secondary antibody (Cell Signaling Technology) for thirty minutes and developed with TMB substrate (KPL) for five to ten minutes. The absorbance of samples at 450 nm wavelength was measured using a spectrophotometer.

CC(C)C[C@@H]1NC(=O)[C@@H](N)Cc2cn(nn2)CCCC[C@@H](C(=O)NCCCOCCOCCOCCCNC(=O)CCCC[C@@H]2SC[C@@H]3NC(=O)N[C@@H]32)NC(=O)[C@H](CCCNC(=N)N)NC(=O)[C@@H]2CCCN2C(=O)CNC(=O)[C@H](CCCNC(=N)N)NC1=O [7b5, Pra-LRGPR-Az4-PEG-Biotin]
levels of K-Ras G12D protein by Western blot [1]: induce proteasomal degradation of K-Ras G12D

CC(C)C[C@@H]1NC(=O)[C@@H](N)Cc2cn(nn2)CCCC[C@@H](C(=O)NCCCOCCOCCOCCCNC(=O)CCCC[C@@H]2SC[C@@H]3NC(=O)N[C@@H]32)NC(=O)[C@H](CCCNC(=N)N)NC(=O)[C@H](CC(=O)O)NC(=O)CNC(=O)[C@H](CCCNC(=N)N)NC1=O [7b, Pra-LRGDR-Az4-PEG-Biotin]
binding to K-Ras G12D in ELISA (absorbance units), result in words [2]: strongest binding fluorescence; also recorded: highest affinity
